“And” between values parts separate entries of the source, which are not always exact repeats. Identical values can stand only once.
Legend:
[1] = system: bovine retinal endothelial cells (BRE); assay: VEGF mediated survival/proliferation of BRE cells, WST-1 assay, peptides added at plating (before cells adhered); type: cell-based; details: VEGF 25 ng/ml, 72 h; for WST-1 induced colorimetric change measured at 440 nm, average: average of wells; for WST-1 induced colorimetric change measured at 440 nm: single wells, 1% FBS
Experimental: The anti-angiogenic activities of the peptides were tested by measuring the level of inhibition of VEGF mediated survival/proliferation of bovine retinal endothelial cells (BRE), a standard cell line used to test anti-angiogenic compounds. Cells were maintained in Cambrex EGM-2MV medium. On day one cells were starved for either 6 hours or overnight, and thereafter trypsinized and plated in a 96 well plate in 100 μl of Invitrogen OptiMem+1% fetal bovine serum. A 100 μl aliquot of Invitrogen OptiMem+1% fetal bovine serum was then added to the wells in addition to, where appropriate, VEGF to a final concentration of 25 ng/ml and the various peptides to final concentration of 12.5, 25, 50 and 100 μg/ml. After 72 hours incubation, the number of live cells in each well was determined using the WST-1 assay (Roche).
The experiment was repeated using higher concentrations of peptide, to a maximum concentration of 200 μg/ml. This required the addition of a substantial amount of water (the peptides are soluble in water and are maintained as stock solution of 2 mg/ml). Therefore, we tested whether the addition of water itself would have any inhibitory effects. As before, BRE were maintained in Cambrex EGM-2MV medium. On day one, cells were starved for either 6 hours or overnight, and thereafter trypsinized and plated in a 96 well plate in 100 μl of OptiMem+1% fetal bovine serum. A 100 μl aliquot of OptiMem+1% fetal bovine serum was then added to the wells, further containing, where appropriate, VEGF to a final concentration of 25 ng/ml and the various peptides to final concentration of 25, 50, 100 and 200 μg/ml. After 72 hours incubation, the amount of live cells in each well was measured using the WST-1 assay (Roche). […]

[2] = system: Mouse B16-F1 melanoma cells; assay: Growth of subcutaneous B16 melanoma tumor in C57BL/6 mice; type: in vivo; design: unit not given beside the values; details: group average, Doxorubicin group
Experimental: The peptides of the invention were tested in an in vivo model of anti-tumor activity. This model compares the growth of subcutaneous B16 melanoma tumor either untreated or treated with either 20 mg/kg, 40 mg/kg, 100 mg/kg daily ip doses of ST100,059.
Male C57BL/6 mice were obtained with a mean body weight of 20±2 g. Mouse B16-F1 melanoma cells were implanted subcutaneously (5×10^5 cell per animal). Peptides (formulated in water) were administered ip daily starting the day after injection of cells. Tumors became palpable around 9 days after injection of the cells. Tumors were then measured every 2 days.

[3] = system: VEGF-induced angiogenesis; assay: VEGF-induced angiogenesis in Matrigel angio-reactors in FVB/N mice, FITC-dextran fluorescence; type: in vivo
Experimental: The peptides of the invention were also tested in an in vivo model of anti-angiogenic activity. This model analyzes VEGF-induced angiogenesis as it occurs in angio-reactors filled with Matrigel in wild-type FVB/N mice (Guedez et al., 2003, Am. J. Pathol. 162:1431-1439).
• Sterile, polyethene tubing (0.14 cm internal diameter) is cut to standard 1 cm lengths using a plexiglass template and single edge razor blade. These tubes are sealed at one end with nail-polish. Into the tubes, 20 μl of Matrigel (growth factor free obtained from BD Biosciences) containing 500 ng/ml VEGF with or without the indicated peptides is injected. After one hour of polymerization of the Matrigel at room temperature the angio-reactors are subcutaneously implanted into both flanks of wild-type FVB/N female mice (8-10 weeks old).
• After 10 days, angiogenesis in the angio-reactors is determined. Mice receive a 100 μl injection of 25 mg/ml of FITC-dextran in phosphate-buffered saline (PBS) via tail vein 20 minutes before collection of the angio-reactors. Quantification of vessel functionality is performed by removal of the Matrigel from the angio-reactors and the fluorescence is measured using a FLUOstar Galaxy microplate reader (excitation 485 nm, emission 520 nm, BMG Labtechnologies GmbH, Germany). The mean relative fluorescence±SD for 10 angio-reactors is determined and statistical analysis performed.

[4] = system: human breast cancer MDA-MB231 tumor xenografts; assay: Human breast cancer MDA-MB231 tumor xenografts in nude mice: caliper and actual tumor weight, necrotic score; type: in vivo; details: Docetaxel group
Experimental: The peptides of the invention were tested in an in vivo model of anti-tumor activity. This model compares the growth of the human breast cancer MDA-MB231 tumor xenografts in nude mice treated with 10 mg/kg or 20 mg/kg daily ip of ST100,059, docetaxel or saline.
Female nude mice (nu/nu) between 5 and 6 weeks of age weighing approximately 20 g were obtained from Harlan, Inc. Animals were implanted subcutaneously (s.c.) by trocar with fragments of human tumors harvested from s.c. grown tumors in nude mice hosts. When the tumors were approximately 60-75 mg in size (about 10-15 days following implantation), the animals were pair-matched into treatment and control groups. Each group contained 8-10 mice, each of which is ear-tagged and followed individually throughout the experiment.
The administration of drugs or controls began the day the animals were pair-matched with tumor size of about 70 mg (Day 1). Mice were weighed and tumor measurements were obtained using calipers twice weekly, starting on Day 1. These tumor measurements were converted to mg tumor weight by the standard formula, (W^2×L)/2. Upon termination of the experiment, the mice were weighed, sacrificed and their tumors were excised. The tumors were weighed, and the mean and medium tumor weight per group was calculated.
For each group, the table reports the caliper measurements and the actual tumor weights obtained as described above.

[5] = in vitro; type: in vitro ADME, bovine; details: serum
Experimental: A stock solution of 1 mM peptide dissolved in water was made. The stock was then diluted to 100 μM in either OptiMem medium+100 units/ml of penicillin and 100 μg/ml streptomycin sulfate+1% fetal bovine serum or in OptiMem+Pen/Strep+10% fetal bovine serum. The diluted samples were placed in a 24-well tissue culture plate in an incubator at 37 degrees. Aliquots of 50-100 μl were removed at 4, 6, 18, 24, 48 and 72 hrs and frozen at −70° C. until analysis.
Samples of 20 μl were separated on a C18 reverse phase column (4.8×250 mm) with a gradient of acetonitrile/water 0.1% TFA and analyzed using a single quad mass spectrometer. Singly or multiply charged peaks were detected depending on the mass of the peptide. Peptide degradation was determined in two ways: loss of peak area in the chromatogram produced using the mass spectrometer as the detector and loss of the main peak in the mass spectrum with simultaneous appearance of a peak(s) from a breakdown product.

[6] = experiment 2, Bonferroni's Multiple Comparison Test

Compound | WST-1 induced colorimetric change measured at 440 nm, average ([1]; peptide 12.5 μg/ml, Table 2) | WST-1 induced colorimetric change measured at 440 nm, average ([1]; peptide 25 μg/ml, Table 2) | WST-1 induced colorimetric change measured at 440 nm, average ([1]; peptide 25 μg/ml, Table 3) | WST-1 induced colorimetric change measured at 440 nm, average ([1]; peptide 50 μg/ml, Table 2) | WST-1 induced colorimetric change measured at 440 nm, average ([1]; peptide 50 μg/ml, Table 3) | WST-1 induced colorimetric change measured at 440 nm, average ([1]; peptide 100 μg/ml, Table 2) | WST-1 induced colorimetric change measured at 440 nm, average ([1]; peptide 100 μg/ml, Table 3) | WST-1 induced colorimetric change measured at 440 nm, average ([1]; peptide 200 μg/ml, Table 3) | WST-1 induced colorimetric change measured at 440 nm ([1]; peptide 12.5 μg/ml, Table 2) | WST-1 induced colorimetric change measured at 440 nm ([1]; peptide 25 μg/ml, Table 2) | WST-1 induced colorimetric change measured at 440 nm ([1]; peptide 25 μg/ml, Table 3) | WST-1 induced colorimetric change measured at 440 nm ([1]; peptide 50 μg/ml, Table 2) | WST-1 induced colorimetric change measured at 440 nm ([1]; peptide 50 μg/ml, Table 3) | WST-1 induced colorimetric change measured at 440 nm ([1]; peptide 100 μg/ml, Table 2) | WST-1 induced colorimetric change measured at 440 nm ([1]; peptide 100 μg/ml, Table 3) | WST-1 induced colorimetric change measured at 440 nm ([1]; peptide 200 μg/ml, Table 3) | further results
LPPHSSQSP ((1)..(1) May be biotinylated; listed as Homo sapiens) [ST100,039] | 0.686 | 0.656 | 0.462 | 0.576 | 0.496 | 0.609 | 0.478 | 0.443 | 0.701 and 0.735 and 0.621 | 0.717 and 0.687 and 0.564 | 0.411 and 0.495 and 0.480 | 0.605 and 0.593 and 0.530 | 0.489 and 0.507 and 0.491 | 0.659 and 0.588 and 0.581 | 0.451 and 0.517 and 0.465 | 0.416 and 0.453 and 0.459 | –
COc1cccc2c1C(=O)c1c(O)c3c(c(O)c1C2=O)C[C@@](O)(C(=O)CO)C[C@@H]3O[C@H]1C[C@H](N)[C@H](O)[C@H](C)O1 [Doxorubicin] | – | – | – | – | – | – | – | – | – | – | – | – | – | – | – | – | subcutaneous B16 melanoma tumor measurement, Average ([2]; Day 11): 213.41; subcutaneous B16 melanoma tumor measurement, Average ([2]; Day 13): 419.71; subcutaneous B16 melanoma tumor measurement, Average ([2]; Day 15): 744.61; subcutaneous B16 melanoma tumor measurement, Average ([2]; Day 16): 1261.33
SPWSSCSVTCGDGVITRIR (listed as Homo sapiens) [TSP616] | – | – | – | – | – | – | – | – | – | – | – | – | – | – | – | – | relative fluorescence (FITC-dextran) of angio-reactors, mean ([3]; experiment 1, group mean, VEGF + inhibitor 40 μM): 6111; Mean Diff., pbs vs inhibitor group [3, 6]: −0.5; Mean Diff., vegf vs inhibitor group [3, 6]: 2645; relative fluorescence of angio-reactors, average ([3]; experiment 2, group average): 635; relative fluorescence of angio-reactors, median ([3]; experiment 2, group median): 484
LPPHSS (listed as Homo sapiens) [ST100,037] | 0.753 | 0.708 | 0.449 | 0.643 | 0.442 | 0.694 | 0.466 | 0.386 | 0.780 and 0.730 and 0.748 | 0.716 and 0.713 and 0.695 | 0.439 and 0.432 and 0.476 | 0.636 and 0.659 and 0.633 | 0.427 and 0.438 and 0.462 | 0.692 and 0.697 and 0.694 | 0.449 and 0.486 and 0.462 | 0.384 and 0.401 and 0.372 | –
CC(=O)O[C@@]12CO[C@@H]1C[C@H](O)[C@@]1(C)C(=O)[C@H](O)C3=C(C)[C@@H](OC(=O)[C@H](O)[C@@H](NC(=O)OC(C)(C)C)c4ccccc4)C[C@@](O)([C@@H](OC(=O)c4ccccc4)[C@H]21)C3(C)C [Docetaxel] | – | – | – | – | – | – | – | – | – | – | – | – | – | – | – | – | actual tumor weight, Average ([4]; group average): 1523 mg; caliper tumor weight, Average ([4]; group average): 1742.22 mg; actual tumor weight, Median ([4]; group median): 35 mg; caliper tumor weight, Median ([4]; group median): 75 mg; caliper tumor weight ([4]; individual mouse, caliper measurement converted by (W^2×L)/2, at termination): 87.5 mg and 32 mg (2×) and 48 mg and 75 mg (2×) and 288 mg and 126 mg (2×); actual tumor weight ([4]; individual mouse, excised tumor weighed): 54 mg and 10 mg and 18 mg and 26 mg and 35 mg and 225 mg and 25 mg and 82 mg and 46 mg
CC(C)C[C@H](NC(=O)[C@H](CO)NC(=O)[C@@H](NC(=O)[C@H](C)N)[C@@H](C)O)C(=O)N1CCC[C@H]1C(=O)N1CCC[C@H]1C(=O)N[C@@H](Cc1c[nH]cn1)C(=O)N[C@@H](CO)C(=O)N[C@@H](CO)C(=O)N[C@@H](CCC(N)=O)C(=O)N[C@@H](CO)C(=O)N1CCC[C@H]1C(=O)O [ST100,038, ATSLPPHSSQSP] | – | – | – | – | – | – | – | – | – | – | – | – | – | – | – | – | peptide remaining (in words) ([5]; bovine, 18 h): none remained; metabolised at 4 h, 100 μM [5]: 50%; metabolised at 6 h, 100 μM [5]: 65%; metabolised at 18 h, 100 μM [5]: 25%; metabolised at 24 h, 100 μM [5]: 33%; metabolised at 48 h, 100 μM [5]: 60%; metabolised at 72 h, 100 μM [5]: 85%
